{"source": "patent US20240317777A1", "about": "“NOVEL MACROCYCLIC AMINOPYRAZOLE COMPOUNDS AS CDK2 INHIBITORS” (Accutar Biotechnology Inc., priority 2023, published 2024)", "key": {"[1]": {"details": "the molecule shown is the open-chain precursor, other bond, 18-membered ring, DIEA, THF"}, "[2]": {"details": "the molecule shown is the open-chain precursor; other bond; 18-membered ring; DIEA; THF; 1.83 mM; 80.0 °C"}}, "note": "Read-outs that look alike come from different tables or passages of the source.", "data": [{"smiles": "CC(C)(C)n1nc([C@H]2CC[C@@H](OC(=O)Oc3ccc([N+](=O)[O-])cc3)C2)cc1Nc1ccnc(OCC2CC(N)C2)c1", "note": "(stereo partly shown)", "values": [{"measurement": "ring closure, crude yield", "setting": "[1]; 1.21 mM, 70.0 °C", "value": 96.7, "unit": "%"}]}, {"smiles": "CC(OCCCN)c1cc(Nc2cc([C@H]3CC[C@@H](OC(=O)Oc4ccc([N+](=O)[O-])cc4)C3)nn2C(C)(C)C)ccn1", "note": "(stereo partly shown)", "values": [{"measurement": "ring closure, crude yield", "setting": "[1]; 6.34 mM, 100.0 °C", "value": 87.5, "unit": "%"}]}, {"smiles": "C[C@H](N)CC(F)(F)COc1cc(Nc2cc([C@H]3CC[C@@H](OC(=O)Oc4ccc([N+](=O)[O-])cc4)C3)nn2C(C)(C)C)ccn1", "values": [{"measurement": "ring closure, yield after HPLC", "setting": "[2]", "value": 66.2, "unit": "%"}]}, {"smiles": "C[C@H](N)CCCCc1cc(Nc2cc([C@H]3CC[C@@H](OC(=O)Oc4ccc([N+](=O)[O-])cc4)C3)nn2C(C)(C)C)ccn1", "values": [{"measurement": "ring closure, crude yield", "setting": "[1]; 0.92 mM, 20.0 °C", "value": 91.9, "unit": "%"}]}, {"smiles": "C[C@H](N)CCCOc1cc(Nc2cc([C@H]3CC[C@@H](OC(=O)Oc4ccc([N+](=O)[O-])cc4)C3)nn2C(C)(C)C)c(F)cn1", "values": [{"measurement": "ring closure, crude yield", "setting": "[1]; 1.71 mM, 25.0 °C", "value": 99.9, "unit": "%"}]}, {"smiles": "C[C@H](N)CCCOc1cc(Nc2cc([C@H]3CC[C@@H](OC(=O)Oc4ccc([N+](=O)[O-])cc4)C3)nn2C(C)(C)C)cc(F)n1", "values": [{"measurement": "ring closure, crude yield", "setting": "[1]; 1.71 mM, 25.0 °C", "value": 97.8, "unit": "%"}]}, {"smiles": "C[C@H](N)CCO[C@@H](C)c1cc(Nc2cc([C@H]3CC[C@@H](OC(=O)Oc4ccc([N+](=O)[O-])cc4)C3)nn2C(C)(C)C)ccn1", "values": [{"measurement": "ring closure, crude yield", "setting": "[1]; 0.55 mM, 25.0 °C", "value": 86.5, "unit": "%"}]}]}
